Consider 13 compounds from US9309263B2, “Fused multi-cyclic sulfone compounds as inhibitors of beta-secretase and methods of use thereof” (AMGEN INC., priority 2013, dated 2016).

Assay [1] concerns Aβ 40 in conditioned medium of cells stably expressing Amyloid Precursor Protein (APP). The assay can be described thus: In vitro BACE cell-based assay (Aβ 40 sandwich ELISA). The settings on record: Homo sapiens, HEK293. How it is done: In Vitro BACE Cell-Based Assay
The cell-based assay measures inhibition or reduction of […] in conditioned medium of test compound treated cells expressing amyloid precursor protein.
Cells stably expressing Amyloid Precursor Protein (APP) were plated at a density of 40K cells/well in 96 well plates (Costar). The cells were cultivated for 24 hours at 37° C. and 5% CO2 in DMEM supplemented with 10% FBS. The test compounds were then added to cells in 10-point dose response concentrations with the starting concentration being either 100 μM or 10 μM. The compounds were diluted from stock solutions in DMSO and the final DMSO concentration of the test compounds on cells was 0.1%. After 24 h of incubation with the test compounds the supernatant conditioned media was collected and the Aβ 40 levels were determined using a sandwich ELISA. The IC50 of the compound was calculated from the percent of control or percent inhibition of Aβ 40 as a function of the concentration of the test compound.
The sandwich ELISA to detect Aβ 40 was performed in 96 well microtiter plates, which were pre-treated with goat anti-rabbit IgG (Pierce). The capture and detecting antibody pair that were used to detect Aβ 40 from cell supernatants were affinity purified pAb40 (Biosource) and biotinylated 6E10 (Signet Labs Inc.), respectively. The optimal concentration for the pAb40 antibody was 3 μg/ml in Superblock/TBS (Pierce) that was supplemented with 0.05% Tween 20 (Sigma). Optimal concentration for the detection antibody 6E10-biotinylated was 0.5 μg/ml in Superblock/TBS (Pierce) that had been supplemented with 2% normal goat serum and 2% normal mouse serum.
Cellular supernatants were incubated with the capture antibody for 3 h at 4° C., followed by 3 wash steps in TBS-tween (0.05%). The detecting antibody incubation was for 2 h at 4° C., again followed by the wash steps as described previously. The final readout of the ELISA is Time-Resolved Fluorescence (counts per minute) using Delfia reagents Streptavidin-Europium and Enhancement solutions (Perkin Elmer) and the Victor 2 multilabel counter (Perkin Elmer).
(An ELISA detects its analyte on a solid surface through an enzyme-linked reagent.)

Assay [2] deals with Cathepsin D (Cat D) (Homo sapiens, UniProt P07339). The assay can be described thus: In vitro enzymatic Cathepsin D (Cat D) FRET assay. In kind it is biochemical. How it is done: In Vitro Enzymatic Cathepsin D (Cat D) FRET (Fluorescence Resonance Energy Transfer) Assay
Cathepsin D (Cat D), sequence (P07339 65-412, species assumed): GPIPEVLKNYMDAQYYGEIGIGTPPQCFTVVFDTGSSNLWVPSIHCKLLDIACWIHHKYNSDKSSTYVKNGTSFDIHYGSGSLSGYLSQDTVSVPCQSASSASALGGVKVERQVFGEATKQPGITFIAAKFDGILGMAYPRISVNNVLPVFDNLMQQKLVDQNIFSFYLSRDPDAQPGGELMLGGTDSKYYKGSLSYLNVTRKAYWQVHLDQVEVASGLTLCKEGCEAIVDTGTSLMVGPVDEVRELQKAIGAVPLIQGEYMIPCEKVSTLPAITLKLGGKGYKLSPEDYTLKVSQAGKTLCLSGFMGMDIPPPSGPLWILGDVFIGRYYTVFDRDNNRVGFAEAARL
Recombinant Cat D was expressed in CHO cells. The assay buffer for CathepsinD is 0.05 M citrate pH 3.5, 10% DMSO final, 5 mM CHAPS. The Cat D enzyme (9 nM) is pre-incubated for one hour with inhibitors, typically in about 1 uL of DMSO according to a serial dilution, is added thereto. The assays are effectively started by the addition of different FRET substrates (20 nM for Cat D) and the combination is incubated for one hour. The FRET assay is terminated with by addition of Tris buffer, which raises the pH to neutrality, and the fluorescence is determined. The FRET substrate is a peptide with commercially available fluorophore and quencher, on opposite sides of the BACE cleavage site. The Cat D substrate peptide sequence is based on sequence #1 of Table 1 from Gulnik et al. FEBS Letters v413 p 379-384 1997. Proteolytic cleavage of the FRET substrate releases quenching of fluorescence (Cat D excitation 500 nm and emission 580 nm). […]
See, for instance, examples 8, 12, 15, 16, 18, 21-23, 24, 25, 26, 29, 30, 32, 41-42, 45, 53, 54, 57, 63, 67-69, 72-74, 76, 79-81, 83 & 84 (to point to just a few; referring to data in Table 2). […] See, for instance, examples 8, 12, 15, 18, 21-23, 25, 29, 30, 32, 41-42, 45, 54, 57, 67-68, 72-73, 76, 80-81, 84, 86, 91-92 & 100 (to point out those from compound examples 1-100; and with reference to data in Table 2).

Assay [3] has as its target Beta Secretase enzyme (BACE) (Homo sapiens, UniProt P56817). Put plainly: In vitro enzymatic BACE FRET assay. In kind it is biochemical. The following applies: read-out: BACE1 FRET assay IC50. The protocol: In Vitro Enzymatic BACE FRET (Fluorescence Resonance Energy Transfer) Assay (Enzyme Assay Data in the Example Table I)
The assay buffer used in this screen is 0.05 M acetate, pH 4.2, 10% DMSO final, 100 uM genapol (which is a nonionic detergent, below its Critical Micelle Concentration). The Beta Secretase enzyme (0.2 nM) is pre-incubated for one hour with inhibitors, typically in about 1 uL of DMSO according to a serial dilution, are added thereto. This assay is effectively started by the addition of FRET substrate (50 nM) and the combination is incubated for one hour. The FRET assay is terminated with by addition of Tris buffer, which raises the pH to neutrality, and the fluorescence is determined. The FRET substrate is a peptide with commercially available fluorophore and quencher, on opposite sides of the BACE cleavage site. Proteolytic cleavage of the FRET substrate releases quenching of fluorescence (excitation 488 nm and […]).

[4] abbreviates: average IC50, HEK cell assay, Aβ 40 readout.
The mark [5] stands for this setting: Cathepsin D FRET assay, read-out: CatD IC50.
[6] abbreviates: average IC50, in vitro enzymatic BACE FRET assay.
Setting [7] is: text summary referring to data in Table 2.

SMILES strings stand for the structures. Like-named read-outs stand apart in the source and are kept apart here.

Beta Secretase enzyme (BACE), sequence (P56817 46-501): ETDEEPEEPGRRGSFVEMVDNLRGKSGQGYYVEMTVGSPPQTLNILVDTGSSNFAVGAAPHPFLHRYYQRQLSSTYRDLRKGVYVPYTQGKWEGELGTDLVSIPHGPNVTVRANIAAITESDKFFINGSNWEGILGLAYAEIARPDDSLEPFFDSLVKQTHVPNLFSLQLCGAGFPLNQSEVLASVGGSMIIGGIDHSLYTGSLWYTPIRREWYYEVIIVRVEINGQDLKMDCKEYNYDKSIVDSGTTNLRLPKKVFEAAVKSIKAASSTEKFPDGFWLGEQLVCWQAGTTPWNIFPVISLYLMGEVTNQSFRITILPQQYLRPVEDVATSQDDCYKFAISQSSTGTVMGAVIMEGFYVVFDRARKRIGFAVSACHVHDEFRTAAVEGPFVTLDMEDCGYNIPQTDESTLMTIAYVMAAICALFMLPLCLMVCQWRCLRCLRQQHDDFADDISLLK

By IC50 is commonly meant the concentration at which inhibition is half-maximal. Consider `Cc1nc(OCC(F)(F)F)cnc1C(=O)Nc1ccc2c(c1)[C@@]1(C)N=C(N)C(C)(C)S(=O)(=O)[C@@H]1CCO2` [Example 23, N-((4aR,11bR)-2-amino-3,3,11b-trimethyl-4,4-dioxido-4a,5,6,11b-tetrahydro-3H-[1]benzoxepino[4,5-b][1,4]thiazin-10-yl)-3-methyl-5-(2,2,2-trifluoroethoxy)-2-pyrazinecarboxamide], for which the 50% inhibitory concentration (IC50) in assay [1] (HEK cell, average IC50) stood at 0.01 µM; in assay [2] (read-out: CatD IC50), 1400 µM; in assay [3] (average IC50), 0.003 µM.

Consider `CC1(C)C(N)=N[C@]2(C)c3cc(Nc4ncc(F)c5cc(C#N)cnc45)ccc3OCC[C@H]2S1(=O)=O` [Example 171, 8-(((4aR,11bR)-2-amino-3,3,11b-trimethyl-4,4-dioxido-4a,5,6,11b-tetrahydro-3H-[1]benzoxepino[4,5-b][1,4]thiazin-10-yl)amino)-5-fluoro-1,7-naphthyridine-3-carbonitrile], for which the IC50 was 0.01 µM in assay [1] (HEK cells, average IC50); more than 14.8 µM in assay [2] (read-out: CatD IC50); 0.003 µM in assay [3] (average IC50).

`Cc1cc(Cl)cnc1C(=O)Nc1ccc2c(c1)[C@@]1(C)N=C(N)C(C)(C)S(=O)(=O)[C@@H]1C[C@H](C)O2` [Example 189, N-((4aR,6S,11bR)-2-amino-3,3,6,11b-tetramethyl-4,4-dioxido-4a,5,6,11b-tetrahydro-3H-[1]benzoxepino[4,5-b][1,4]thiazin-10-yl)-5-chloro-3-methyl-2-pyridinecarboxamide]: the IC50 in assay [1] (HEK cells, average IC50) turned out to be 0.001 µM; in assay [2] (read-out: CatD IC50), 191 µM; in assay [3] (average IC50) it was 0.003 µM.

With `C[C@H]1C[C@@H]2[C@](C)(N=C(N)C(C)(C)S2(=O)=O)c2cc(NC(=O)c3cnc(Cl)cn3)ccc2O1` [Example 75, N-((4aR,6S,11bR)-2-amino-3,3,6,11b-tetramethyl-4,4-dioxido-4a,5,6,11b-tetrahydro-3H-[1]benzoxepino[4,5-b][1,4]thiazin-10-yl)-5-chloro-2-pyrazinecarboxamide], the IC50 in assay [1] (HEK cell, average IC50) worked out at 0.061 µM; in assay [2] (read-out: CatD IC50), 217 µM; in assay [3] (average IC50), 0.004 µM.

As for `CC1(C)C(N)=N[C@]2(C)c3cc(NC(=O)c4cnc(OCC(F)F)cn4)ccc3OCC[C@H]2S1(=O)=O` [Example 90, N-((4aR,11bR)-2-amino-3,3,11b-trimethyl-4,4-dioxido-4a,5,6,11b-tetrahydro-3H-benzo[6,7]oxepino[4,5-b][1,4]thiazin-10-yl)-5-(2,2-difluoroethoxy)pyrazine-2-carboxamide], the IC50 in assay [1] (setting [4]) was 0.011 µM; in assay [2] (setting [5]) it was 919 µM; in assay [3] (setting [6]), 0.007 µM.

On to `COc1ccc(C(=O)Nc2ccc3c(c2)[C@@]2(C)N=C(N)C(C)(C)S(=O)(=O)[C@@H]2CCO3)nc1` [Example 185, N-((4aR,11bR)-2-amino-3,3,11b-trimethyl-4,4-dioxido-4a,5,6,11b-tetrahydro-3H-[1]benzoxepino[4,5-b][1,4]thiazin-10-yl)-5-methoxy-2-pyridinecarboxamide], for which the 50% inhibitory concentration (IC50) in assay [1] (HEK cells, average IC50) was 0.013 µM; in assay [2] (read-out: CatD IC50), 516 µM; in assay [3] (average IC50) it was 0.021 µM.

With `Cc1cc(C#N)cnc1C(=O)Nc1ccc2c(c1)[C@@]1(C)N=C(N)C(C)(C)S(=O)(=O)[C@@H]1CCO2` [Example 192, N-((4aR,11bR)-2-amino-3,3,11b-trimethyl-4,4-dioxido-4a,5,6,11b-tetrahydro-3H-[1]benzoxepino[4,5-b][1,4]thiazin-10-yl)-5-cyano-3-methyl-2-pyridinecarboxamide], the IC50 is 0.001 µM in assay [1] (HEK cells, average IC50); 434 µM in assay [2] (read-out: CatD IC50); 0.002 µM in assay [3] (average IC50).

On to `COCc1ccc(C(=O)Nc2ccc3c(c2)[C@@]2(C)N=C(N)C(C)(C)S(=O)(=O)[C@@H]2CCO3)nc1` [Example 92, N-((4aR,11bR)-2-amino-3,3,11b-trimethyl-4,4-dioxido-4a,5,6,11b-tetrahydro-3H-[1]benzoxepino[4,5-b][1,4]thiazin-10-yl)-5-(methoxymethyl)-2-pyridinecarboxamide], for which the half-inhibitory concentration (IC50) in assay [1] (setting [4]) is 0.026 µM; in assay [2] (setting [5]) it was 3050 µM; in assay [2] (setting [7]), more than 1200 µM; in assay [3] (setting [6]) it was 0.122 µM.

In the case of `CC#CCOc1cnc(C(=O)Nc2ccc3c(c2)[C@@]2(C)N=C(N)C(C)(C)S(=O)(=O)[C@H]2CC(C)(C)O3)cn1` [Example 102, N-((4aS,11bR)-2-amino-3,3,6,6,11b-pentamethyl-4,4-dioxido-4a,5,6,11b-tetrahydro-3H-[1]benzoxepino[4,5-b][1,4]thiazin-10-yl)-5-(2-butyn-1-yloxy)-2-pyrazinecarboxamide], the figures for the IC50 in assay [1] (setting [4]), in assay [2] (setting [5]) and in assay [3] (setting [6]) were 0.002 µM, 284 µM and 0.001 µM, respectively.

For the compound `Cc1cc(C(F)(F)F)cnc1C(=O)Nc1ccc2c(c1)[C@@]1(C)N=C(N)C(C)(C)S(=O)(=O)[C@@H]1CCC2` [Example 45, N-((4aR,11bR)-2-amino-3,3,11b-trimethyl-4,4-dioxido-3,4a,5,6,7,11b-hexahydrobenzo[3,4]cyclohepta[1,2-b][1,4]thiazin-10-yl)-3-methyl-5-(trifluoromethyl)-2-pyridinecarboxamide], the IC50 in assay [1] (HEK cell, average IC50) is 0.006 µM; in assay [2] (read-out: CatD IC50), 1460 µM; in assay [2] (setting [7]) it was more than 1200 µM; in assay [3] (average IC50), 0.018 µM.

Regarding `Cc1c(C(=O)Nc2ccc3c(c2)[C@@]2(C)N=C(N)C(C)(C)S(=O)(=O)[C@@H]2CCO3)nc2ccc(Cl)cn12` [Example 28, N-((4aR,11bR)-2-amino-3,3,11b-trimethyl-4,4-dioxido-4a,5,6,11b-tetrahydro-3H-[1]benzoxepino[4,5-b][1,4]thiazin-10-yl)-6-chloro-3-methylimidazo[1,2-a]pyridine-2-carboxamide], the IC50 in assay [1] (HEK cell, average IC50) was 0.008 µM; in assay [2] (read-out: CatD IC50), more than 400 µM; in assay [3] (average IC50), 0.028 µM.

For the compound `COc1cnc2c(Nc3ccc4c(c3)[C@@]3(CF)N=C(N)C(C)(C)S(=O)(=O)[C@@H]3CCO4)nccc2n1` [Example 151, (4aR,11bS)-11b-(fluoromethyl)-N^~10^~-(2-methoxypyrido[3,4-b]pyrazin-5-yl)-3,3-dimethyl-4a,5,6,11b-tetrahydro-3H-[1]benzoxepino[4,5-b][1,4]thiazine-2,10-diamine 4,4-dioxide], the IC50 in assay [1] (setting [4]) was 0.068 µM; in assay [2] (setting [5]), more than 400 µM; in assay [3] (setting [6]), 0.037 µM.

For `Cc1cc(Cl)cnc1C(=O)Nc1cnc2c(c1)[C@@]1(C)N=C(N)C3(CCC3)S(=O)(=O)[C@H]1CCO2` [Example 58, N-((4a′S,11b′R)-2′-amino-11b′-methyl-4′,4′-dioxido-4a′,5′,6′,11b′-tetrahydrospiro[cyclobutane-1,3′-pyrido[3′,2′:6,7]oxepino[4,5-b][1,4]thiazin]-10′-yl)-5-chloro-3-methyl-2-pyridinecarboxamide], the IC50 in assay [1] (HEK cell, average IC50) amounted to 0.011 µM; in assay [2] (read-out: CatD IC50), 656 µM; in assay [3] (average IC50), 0.014 µM.
